According to US20160120877A1, “PHARMACEUTICAL COMPOSITIONS FOR SUSTAINED DELIVERY OF BENZODIAZEPINE ANTAGONISTS” (priority 2010, published 2016):

What was measured:
Format in all cases: physicochemical
[1] = Dialysis diffusion: effect of sample concentration; conditions: for % flumazenil released: sample C2 (0.25 g of 4.5% solution in NMP)
Method: (§1) Dialysis tubing cellulose membrane was cut into approximately 8 cm lengths, washed with hot water for 3 hours. Tubing was then treated with 0.3% (w/v) solution of sodium sulfide at 80° C. for 1 minute, washed with hot water (60° C.) for 2 minutes and followed by acidification with 0.2% sulfuric acid. Tubing was then rinsed with hot water to remove the acid. Test formulations were added, the tubing closed with nylon closures and placed in the dialysate. At various time periods, the dialysate was sampled and the flumazenil released measured by HPLC assay.
Experiments were conducted to test the effect of sample concentration on diffusion rate.
(§2) As described in 1.1 with 600 ml of phosphate buffer pH 4.0 as dialysate.
A=0.25 g of a 1.5% flumazenil solution in NMP
B=0.25 g of a 3.0% flumazenil solution in NMP
C=0.25 g of a 4.5% flumazenil solution in NMP

[2] = Dialysis diffusion: effect of dialysate volume; conditions: 0.25 g of 3% solution in NMP
Method: Dissolution apparatus: Vankel VK 7000 (Agilent Technologies Australia)
Dialysis bags: dialysis tubing cellulose membrane from Sigma-Aldrich Australia—average flat width 25 mm, average diameter 16 mm (when full), retains >90% of cytocrome C (M.W. 12.400) in solution over a 10 hrs period.
as §1
Chromatography column: C18-250 mm×4.6 mm×5 μm (Sigma Aldrich Australia)
Mobile phase: H2O pH 2:methanol:tetrahydrofuran (80:13:7)
Injection volume: 10 μl and 100 μl
Experiments were conducted to check the influence of the volume of the dialysis medium (dialysate) on diffusion rate.
A=800 ml of phosphate buffer pH 4.0
B=600 ml of phosphate buffer pH 4.0
0.25 g of 3% flumazenil solution in N-Methyl-2-Pyrrolidinone (NMP)

[3] = Dialysis diffusion: effect of sample size
Method: as §1
Experiments were conducted to test the influence of sample size on diffusion rate.
as §2
A=0.125 g of a 3% flumazenil solution in NMP
B=0.250 g of a 3% flumazenil solution in NMP
C=0.500 g of a 3% flumazenil solution in NMP

% flumazenil released ([1]; 1 h): 29.1%
% flumazenil released ([1]; 2 h): 43.0%
precipitation during the dialysis ([1]; sample C (0.25 g of 4.5% solution in NMP)): Precipitation was observed
% flumazenil released ([2]; A1 (800 ml dialysate pH 4.0), 1 h): 57.6%
% flumazenil released ([2]; A1 (800 ml dialysate pH 4.0), 2 h): 73.1%
% flumazenil released ([2]; A1 (800 ml dialysate pH 4.0), 4 h): 94.5%
% flumazenil released ([2]; A1 (800 ml dialysate pH 4.0), 6 h): 100.9%
% flumazenil released ([2]; A1 (800 ml dialysate pH 4.0), 24 h): 100.7%
% flumazenil released ([2]; A2 (800 ml dialysate pH 4.0), 1 h): 50.3%
% flumazenil released ([2]; A2 (800 ml dialysate pH 4.0), 2 h): 66.0%
% flumazenil released ([2]; A2 (800 ml dialysate pH 4.0), 4 h): 88.6%
% flumazenil released ([2]; A2 (800 ml dialysate pH 4.0), 6 h): 98.9%
% flumazenil released ([2]; A2 (800 ml dialysate pH 4.0), 24 h): 101.7%
% flumazenil released ([2]; B1 (600 ml dialysate pH 4.0), 1 h): 52.2%
% flumazenil released ([2]; B1 (600 ml dialysate pH 4.0), 2 h): 69.2%
% flumazenil released ([2]; B1 (600 ml dialysate pH 4.0), 4 h): 92.7%
% flumazenil released ([2]; B1 (600 ml dialysate pH 4.0), 6 h): 99.2%
% flumazenil released ([2]; B1 (600 ml dialysate pH 4.0), 24 h): 100.64%
% flumazenil released ([2]; B2 (600 ml dialysate pH 4.0), 1 h): 50.5%
% flumazenil released ([2]; B2 (600 ml dialysate pH 4.0), 2 h): 66.5%
% flumazenil released ([2]; B2 (600 ml dialysate pH 4.0), 4 h): 89.2%
% flumazenil released ([2]; B2 (600 ml dialysate pH 4.0), 6 h): 98.0%
% flumazenil released ([2]; B2 (600 ml dialysate pH 4.0), 24 h): 99.2%
time to reach equilibrium ([2]; dialysate A (800 ml)): around 6 hours
time to reach equilibrium ([2]; dialysate B (600 ml)): around 6 hours
% flumazenil released ([3]; sample A1 (0.125 g of 3% solution in NMP), 1 h): 85.8%
% flumazenil released ([3]; sample A1 (0.125 g of 3% solution in NMP), 2 h): 94.9%
% flumazenil released ([3]; sample A1 (0.125 g of 3% solution in NMP), 4 h): 100.1%
% flumazenil released ([3]; sample A1 (0.125 g of 3% solution in NMP), 6 h): 101.8%
% flumazenil released ([3]; sample A1 (0.125 g of 3% solution in NMP), 24 h): 101.6%
% flumazenil released ([3]; sample A2 (0.125 g of 3% solution in NMP), 1 h): 77.9%
% flumazenil released ([3]; sample A2 (0.125 g of 3% solution in NMP), 2 h): 90.8%
% flumazenil released ([3]; sample A2 (0.125 g of 3% solution in NMP), 4 h): 99.1%
% flumazenil released ([3]; sample A2 (0.125 g of 3% solution in NMP), 6 h): 101.3%
% flumazenil released ([3]; sample A2 (0.125 g of 3% solution in NMP), 24 h): 102.0%
% flumazenil released ([3]; sample B1 (0.250 g of 3% solution in NMP), 1 h): 50.9%
% flumazenil released ([3]; sample B1 (0.250 g of 3% solution in NMP), 2 h): 64.7%
% flumazenil released ([3]; sample B1 (0.250 g of 3% solution in NMP), 4 h): 87.0%
% flumazenil released ([3]; sample B1 (0.250 g of 3% solution in NMP), 6 h): 96.3%
% flumazenil released ([3]; sample B1 (0.250 g of 3% solution in NMP), 24 h): 101.3%
% flumazenil released ([3]; sample B2 (0.250 g of 3% solution in NMP), 1 h): 50.9%
% flumazenil released ([3]; sample B2 (0.250 g of 3% solution in NMP), 2 h): 65.2%
% flumazenil released ([3]; sample B2 (0.250 g of 3% solution in NMP), 4 h): 87.6%
% flumazenil released ([3]; sample B2 (0.250 g of 3% solution in NMP), 6 h): 97.8%
% flumazenil released ([3]; sample B2 (0.250 g of 3% solution in NMP), 24 h): 101.3%
% flumazenil released ([3]; sample C1 (0.500 g of 3% solution in NMP), 1 h): 36.6%
% flumazenil released ([3]; sample C1 (0.500 g of 3% solution in NMP), 2 h): 45.5%
% flumazenil released ([3]; sample C1 (0.500 g of 3% solution in NMP), 4 h): 59.3%
% flumazenil released ([3]; sample C1 (0.500 g of 3% solution in NMP), 6 h): 70.4%
% flumazenil released ([3]; sample C1 (0.500 g of 3% solution in NMP), 24 h): 100.8%
% flumazenil released ([3]; sample C2 (0.500 g of 3% solution in NMP), 1 h): 46.5%
% flumazenil released ([3]; sample C2 (0.500 g of 3% solution in NMP), 2 h): 56.0%
% flumazenil released ([3]; sample C2 (0.500 g of 3% solution in NMP), 4 h): 71.1%
% flumazenil released ([3]; sample C2 (0.500 g of 3% solution in NMP), 6 h): 83.1%
% flumazenil released ([3]; sample C2 (0.500 g of 3% solution in NMP), 24 h): 101.0%
SMILES: CCOC(=O)c1ncn2c1CN(C)C(=O)c1cc(F)ccc1-2 [flumazenil, ethyl 8-fluoro-5,6-dihydro-5-methyl-6-oxo-4H-imidazo[1,5-a](1,4)benzodiazepine-3-carboxylate]
